ChEMBL document CHEMBL3576799, “Aranciamycins I and J, Antimycobacterial Anthracyclines from an Australian Marine-Derived Streptomyces sp” (J Nat Prod, 2015)
In brackets after ≈: the same amount, converted by molar mass.

System: Mycobacterium tuberculosis
Experiment: Antimycobacterial activity against Mycobacterium bovis BCG
Format: functional, organism-based
Conditions: variant bovis BCG

Row | SMILES | IC50 [nM] | MIC [µM]
1 | CO[C@H]1[C@H](O[C@H]2C[C@](C)(O)Cc3cc4c(c(O)c32)C(=O)c2c(O)cccc2C4=O)O[C@@H](C)[C@H](O)[C@H]1O | 1100 | 30 (≈ 15 µg/mL)
2 | CO[C@H]1[C@H](O[C@@H]2c3c(cc4c(c3O)C(=O)c3c(O)cccc3C4=O)C(=O)[C@@](C)(O)[C@H]2OC)O[C@@H](C)[C@H](O)[C@H]1O [ARANCIAMYCIN] | 1700 | 30 (≈ 16.3 µg/mL)
3 | C[C@@H]1O[C@@H](O[C@H]2C[C@](C)(O)Cc3cc4c(c(O)c32)C(=O)c2c(O)cccc2C4=O)[C@H](O)[C@H](O)[C@H]1O | 800 | 10 (≈ 4.86 µg/mL)
4 | CO[C@H]1[C@H](O[C@H]2C[C@](C)(O)C(=O)c3cc4c(c(O)c32)C(=O)c2c(O)cccc2C4=O)O[C@@H](C)[C@H](O)[C@H]1O | 700 | 10 (≈ 5.14 µg/mL)
